Measurements reported in ChEMBL document CHEMBL1201862, “PubChem BioAssay data set” (2004).
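96-well plates; 48 h exposure; 5 concentrations. Endpoints by linear interpolation between flanking doses. Not reached: highest tested concentration assigned. The concentration for 50% growth inhibition is given as GI50.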 Calls of active or inactive are those of the source. Rule as the data show it: active = GI50 up to about 1.1 µM and inactive = higher.

Assays:
Test in all cases: growth of human tumour cells (NCI), 48 h
[1] = tested on: OVCAR-3
[2] = tested on: Malme-3M
[3] = tested on: MCF7
[4] = tested on: RPMI-8226
[5] = tested on: SK-MEL-2
[6] = tested on: OVCAR-4
[7] = tested on: IGROV-1
[8] = tested on: BT-549
[9] = tested on: SNB-75
[10] = tested on: M14
[11] = tested on: CAKI-1
[12] = tested on: Hs-578T
[13] = tested on: K562
[14] = tested on: EKVX
[15] = tested on: SW-620
[16] = tested on: MDA-N
[17] = tested on: U-251
[18] = tested on: SN12C
[19] = tested on: SF-539
[20] = tested on: LOX IMVI

| SMILES | GI50 [1] | GI50 [2] | GI50 [3] | GI50 [4] | GI50 [5] | GI50 [6] | GI50 [7] | GI50 [8] | GI50 [9] | GI50 [10] | GI50 [11] | GI50 [12] | GI50 [13] | GI50 [14] | GI50 [15] | GI50 [16] | GI50 [17] | GI50 [18] | GI50 [19] | GI50 [20] |
| --- | --- | --- | --- | --- | --- | --- | --- | --- | --- | --- | --- | --- | --- | --- | --- | --- | --- | --- | --- | --- |
| C=C[C@@]1(C)CC[C@@H]2[C@@]3(C1)O[C@H]3CC1[C@](C)(C(=O)OC)CCC[C@@]12C (stereo partly specified) | 17 µM (inactive) | 17.7 µM (inactive) | 15.6 µM (inactive) | 27 µM (inactive) | 18.9 µM (inactive) | 38.5 µM (inactive) | 25.6 µM (inactive) | 25.5 µM (inactive) | 37.8 µM (inactive) | 19.6 µM (inactive) | 33.5 µM (inactive) | 20 µM (inactive) | 32.8 µM (inactive) | 20.7 µM (inactive) | 23.7 µM (inactive) | 22.1 µM (inactive) | 21.1 µM (inactive) |  |  |  |
| CC1(C)c2ccccc2C(=O)C12CCC(=O)CC2 |  | 60.5 µM (inactive) | > 100 µM (inactive) |  | > 100 µM (inactive) | > 100 µM (inactive) | > 100 µM (inactive) | > 100 µM (inactive) | 0.504 µM (active) | > 100 µM (inactive) | > 100 µM (inactive) | 69.8 µM (inactive) | > 100 µM (inactive) | > 100 µM (inactive) | > 100 µM (inactive) | > 100 µM (inactive) | > 100 µM (inactive) | > 100 µM (inactive) | > 100 µM (inactive) | > 100 µM (inactive) |
| CC(O)(C(=O)N(O)c1ccc(Cl)cc1)c1ccc(Cl)cc1 (stereo unspecified) | 25.2 µM (inactive) | 28.1 µM (inactive) | 35.4 µM (inactive) | 11.2 µM (inactive) | 22.2 µM (inactive) | 37.9 µM (inactive) | 19.9 µM (inactive) | 21.6 µM (inactive) |  | 34 µM (inactive) | 23.9 µM (inactive) | 16.9 µM (inactive) | 17.3 µM (inactive) | 39.3 µM (inactive) | 31.3 µM (inactive) | 41.1 µM (inactive) | 23.6 µM (inactive) | 37.4 µM (inactive) | 32.5 µM (inactive) | 24.4 µM (inactive) |
| CC(=O)OCC(OC(C)=O)C1C[C@H]2O[C@@H]3[C@H](C[C@H]2O1)O[C@@]1(C[C@@H]3C)C[C@H](C)[C@@H]2O[C@]3(C[C@@H]2O1)C[C@H]1O[C@H]2[C@H](C)[C@H]4OC(=O)C[C@H]5CC[C@@H]6OC7[C@H]8O[C@]9(CC[C@H]%10CC(=O)[C@H](CC[C@H]%11C[C@@H](C)C(=O)C(C[C@@H]4O[C@H]2C[C@H]1O3)O%11)O%10)CC8O[C@@H]7[C@@H](O9)[C@H]6O5 (stereo partly specified) | 0.00319 µM (active) |  | 0.00151 µM (active) | 0.00229 µM (active) | 0.0481 µM (active) |  | 0.00322 µM (active) | 0.000553 µM (active) | 0.00265 µM (active) | 0.00619 µM (active) | 0.00515 µM (active) | 0.00179 µM (active) | 0.00123 µM (active) | 0.0201 µM (active) | 0.00438 µM (active) | 0.000321 µM (active) | 0.00506 µM (active) | 0.0142 µM (active) |  | 0.00486 µM (active) |
